# From US12419878B2, “Sustained release local anesthetic hydrogel composition” (THE GOVERNING COUNCIL OF THE UNIVERSITY OF TORONTO, priority 2019, dated 2025)
# Counter-ions that a name gives are not always drawn.
# Test: Plasma pharmacokinetics of ropivacaine in sciatic nerve blockade model
# Assay type: in vivo, Sprague-Dawley rats
# Source text: Male Sprague-Dawley rats, approximately 400-500 g in weight, were anesthetized with 3-5% isoflurane and maintained as required. The left hind leg was shaved, cleaned twice with iodine and 70% ethanol, and a sterile drape placed over the animal to create a sterile field. An incision was made in the skin and the sciatic nerve exposed using a blunt dissection. The treatment was applied, the muscle and incision closed with sutures, and animals allowed to recover under a heat lamp. Controls were injected with vehicle only (i.e. HAMC) or ropivacaine in solution.
# Blood samples were taken from the tail veins and quantified using mass-spectrometry. All extractions and mass-spectrometry was carried out by the Analytical Facility for Bioactive Molecules (The Hospital for Sick Children, Toronto, Canada).
# To gain insight into the pharmacokinetics of ropivacaine released from HAMC, the sciatic nerve block procedure was performed as described. Animals were treated with ropivacaine-loaded 1.4:3 HAMC at doses of 30, 60, 90 or 120 mg/kg of particulate ropivacaine (<100 μm). Control animals received HAMC alone or ropivacaine in solution at 24 mg/kg. Each animal received approximately 400 μL of treatment. For the HAMC groups, blood was sampled by tail vein puncture at 2 h, 4 h, 6 h, 12 h, 20 h, 30 h, 48 h and 72 h. […]
# All statistical analyses were performed using GraphPad Prism (GraphPad Software 6, San Diego, CA, USA). Differences among 4 groups were assessed by one-way ANOVA followed by either Dunnett's or Tukey's multiple comparisons test to identify statistical significance. […] The area under the curve (AUC) was calculated for each HAMC-ropivacaine pharmacokinetic profile, and the subsequent AUC vs HAMC-ropivacaine relationship was fit to a linear regression.
# A pharmacokinetics study was performed to evaluate the systemic plasma distribution of ropivacaine when delivered either from HAMC or as bolus liquid solution. […] Blood was sampled by tail vein puncture over time, and the amount of ropivacaine was quantified by LC-MS/MS.
# [1] = Sprague-Dawley, rat, plasma, 24 mg/kg at left sciatic nerve, male rats
smiles,measurement,setting,value
"CCCN1CCCC[C@H]1C(=O)Nc1c(C)cccc1C [ropivacaine solution, ropivacaine·HCl]",plasma levels,"24 mg/kg, by 24 h",negligible plasma levels
same,Cmax,[1],1000 ng/mL
same,Tmax,[1],1 h
